Results published in PubChem BioAssay (NCI).
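In this assay, cells in 96-well plates receive the compound at five concentrations for 48 hours. Endpoints are linearly interpolated between the surrounding concentrations. GI50 is the concentration that inhibits growth by half. TGI is the concentration that stops growth completely.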

Assays:
Experiment in all cases: growth of human tumour cells (NCI), 48 h
[1] = test system: U251 CNS
[2] = test system: UACC-62 melanoma
[3] = test system: PC-3 prostate
[4] = test system: HT29 colon
[5] = test system: SN12C renal
[6] = test system: SK-OV-3 ovarian
[7] = test system: MOLT-4 leukemia
[8] = test system: CAKI-1 renal
[9] = test system: OVCAR-5 ovarian
[10] = test system: TK-10 renal
[11] = test system: LOX IMVI melanoma
[12] = test system: T-47D breast
[13] = test system: SK-MEL-5 melanoma
[14] = test system: OVCAR-4 ovarian
[15] = test system: HS 578T breast
[16] = test system: NCI-H23 lung
[17] = test system: CCRF-CEM leukemia
[18] = test system: OVCAR-8 ovarian
[19] = test system: SNB-19 CNS
[20] = test system: MDA-MB-435
[21] = test system: HCT-116 colon
[22] = test system: MDA-MB-231 breast
[23] = test system: RPMI-8226 leukemia
[24] = test system: K-562 leukemia
[25] = test system: OVCAR-3 ovarian
[26] = test system: SK-MEL-28 melanoma
[27] = test system: NCI-H226 lung
[28] = test system: MALME-3M melanoma
[29] = test system: IGROV1 ovarian
[30] = test system: A498 renal
[31] = test system: SF-539 CNS
[32] = test system: SF-295 CNS
[33] = test system: COLO 205 colon
[34] = test system: HCT-15 colon
[35] = test system: KM12 colon
[36] = test system: HL-60(TB) leukemia
[37] = test system: NCI-H522 lung
[38] = test system: M14 melanoma
[39] = test system: SR leukemia
[40] = test system: EKVX NSCLC
[41] = test system: A549 NSCLC
[42] = test system: SW-620 colon
[43] = test system: RXF 393 renal
[44] = test system: HOP-92 NSCLC
[45] = test system: NCI/ADR-RES ovarian
[46] = test system: DU-145 prostate
[47] = test system: UACC-257 melanoma
[48] = test system: SF-268 CNS
[49] = test system: ACHN renal
[50] = test system: UO-31 renal
[51] = test system: NCI-H460 lung
[52] = test system: 786-0 renal
[53] = test system: HOP-62 NSCLC
[54] = test system: SNB-75 CNS
[55] = test system: HCC-2998 colon
[56] = test system: MCF7 breast
[57] = test system: BT-549 breast
[58] = test system: SK-MEL-2 melanoma

SMILES: O=C1C(=Cc2cccc(O)c2)N=C(c2ccccc2)N1n1c(-c2ccccc2)nc2ccccc2c1=O
- TGI [1]: > 100 µM
- TGI [2]: 50.9 µM
- TGI [3]: 58.7 µM
- TGI [4]: 85 µM
- TGI [5]: > 100 µM
- TGI [6]: > 100 µM
- TGI [7]: 44.2 µM
- TGI [8]: 85.8 µM
- TGI [9]: 78.3 µM
- TGI [10]: > 100 µM
- TGI [11]: 52.5 µM
- TGI [12]: 91.7 µM
- TGI [13]: 48 µM
- TGI [14]: > 100 µM
- TGI [15]: 76.8 µM
- TGI [16]: 88.5 µM
- TGI [17]: 75.5 µM
- TGI [18]: 98.5 µM
- TGI [19]: 72.7 µM
- TGI [20]: > 100000 nM
- TGI [21]: 43.2 µM
- TGI [22]: > 100 µM
- TGI [23]: 50.2 µM
- TGI [24]: > 100 µM
- TGI [25]: 70.1 µM
- TGI [26]: > 100 µM
- TGI [27]: 18.9 µM
- TGI [28]: 92.3 µM
- TGI [29]: 61.1 µM
- TGI [30]: 72.4 µM
- TGI [31]: 51.3 µM
- TGI [32]: 65.6 µM
- TGI [33]: 79.7 µM
- TGI [34]: > 100 µM
- TGI [35]: 56.4 µM
- TGI [36]: 54 µM
- TGI [37]: 56 µM
- TGI [38]: > 100000 nM
- TGI [39]: 60.5 µM
- TGI [40]: > 100 µM
- TGI [41]: > 100 µM
- TGI [42]: > 100 µM
- TGI [43]: 83.8 µM
- TGI [44]: 66 µM
- TGI [45]: > 100 µM
- TGI [46]: 74.5 µM
- TGI [47]: 81.9 µM
- TGI [48]: 87.5 µM
- TGI [49]: 58 µM
- TGI [50]: 61.1 µM
- TGI [51]: 59.8 µM
- TGI [52]: > 100 µM

SMILES: COc1cc(/C=C/C(=O)c2ccc(NC(=O)CSc3nnc(-c4cc(OC)c(OC)c(OC)c4)n3-c3ccccc3)cc2)cc(OC)c1OC
- GI50 [1]: 527 nM
- TGI [1]: > 100 µM
- GI50 [10]: 9.3 µM
- TGI [10]: > 100 µM
- GI50 [14]: 1800 nM
- TGI [14]: > 100 µM
- GI50 [15]: 20.4 µM
- TGI [15]: > 100 µM
- GI50 [19]: 2180 nM
- TGI [19]: > 100 µM
- GI50 [53]: 1840 nM
- TGI [53]: 7.06 µM
- GI50 [22]: 4090 nM
- TGI [22]: > 100 µM
- GI50 [54]: 429 nM
- TGI [54]: 14.2 µM
- GI50 [39]: 316 nM
- TGI [39]: > 100 µM
- GI50 [44]: 2060 nM
- TGI [44]: 9.67 µM
- GI50 [52]: 1050 nM
- TGI [52]: 4.63 µM

SMILES: CCOC(=O)[C@@H](C)C[C@H](Cc1ccccc1)NC(=O)c1csc([C@@H](C[C@H](C(C)C)N(C)C(=O)[C@H](CC)NC(=O)[C@H]2CCCCN2C)OC(C)=O)n1
- GI50 [1]: 3.1 nM
- TGI [1]: > 16.7 µM
- GI50 [2]: < 1.67 nM
- TGI [2]: > 16.7 µM
- GI50 [3]: < 1.67 nM
- TGI [3]: > 16.7 µM
- GI50 [4]: < 1.67 nM
- TGI [4]: > 16.7 µM
- GI50 [5]: 5.15 nM
- TGI [5]: > 16.7 µM
- GI50 [6]: < 1.67 nM
- TGI [6]: > 16.7 µM
- GI50 [7]: 8.96 nM
- TGI [7]: > 16.7 µM
- GI50 [8]: < 1.67 nM
- TGI [8]: > 16.7 µM
- GI50 [9]: 10.8 nM
- TGI [9]: > 16.7 µM
- TGI [10]: > 16.7 µM
- GI50 [11]: 8.42 nM
- TGI [11]: > 16.7 µM
- GI50 [55]: 2.67 nM
- TGI [55]: > 5.64 µM
- GI50 [13]: < 1.67 nM
- TGI [13]: 0.0432 µM
- GI50 [14]: 3.97 nM
- TGI [14]: > 16.7 µM
- GI50 [15]: 0.00405 µM
- TGI [15]: > 15.5 µM
- GI50 [16]: 4.76 nM
- TGI [16]: > 16.7 µM
- GI50 [17]: 3.97 nM
- TGI [17]: > 16.7 µM
- GI50 [18]: 4.34 nM
- TGI [18]: > 16.7 µM
- GI50 [19]: 1.99 nM
- TGI [19]: > 16.7 µM
- GI50 [20]: < 1.67 nM
- TGI [20]: 1.69 nM
- GI50 [53]: 3.67 nM
- TGI [53]: > 16.7 µM
- GI50 [21]: < 1.67 nM
- TGI [21]: 1.68 µM
- GI50 [22]: 3.23 nM
- TGI [22]: 0.308 µM
- GI50 [23]: < 1.67 nM
- TGI [23]: > 16.7 µM
- GI50 [24]: < 1.67 nM
- TGI [24]: > 16.7 µM
- GI50 [25]: < 1.67 nM
- TGI [25]: 0.00453 µM
- GI50 [27]: 3.35 nM
- TGI [27]: 0.102 µM
- GI50 [28]: < 1.67 nM
- TGI [28]: > 16.7 µM
- GI50 [29]: 1.93 nM
- TGI [29]: > 16.7 µM
- GI50 [31]: 3.06 nM
- TGI [31]: 0.0098 µM
- GI50 [54]: < 1.67 nM
- TGI [54]: > 16.7 µM
- GI50 [32]: < 1.67 nM
- TGI [32]: > 4.03 µM
- GI50 [33]: < 1.67 nM
- TGI [33]: 0.0211 µM
- GI50 [34]: 6.28 nM
- TGI [34]: > 16.7 µM
- GI50 [35]: < 1.67 nM
- TGI [35]: > 16.7 µM
- GI50 [36]: < 1.67 nM
- TGI [36]: 0.0114 µM
- GI50 [37]: < 1.67 nM
- TGI [37]: 0.362 µM
- GI50 [38]: 1.71 nM
- TGI [38]: 7.62 nM
- GI50 [39]: < 1.67 nM
- TGI [39]: > 16.7 µM
- GI50 [40]: 4.84 nM
- TGI [40]: > 16.7 µM
- GI50 [41]: 4.15 nM
- TGI [41]: > 16.7 µM
- GI50 [56]: < 1.67 nM
- TGI [56]: > 16.7 µM
- GI50 [42]: < 1.67 nM
- TGI [42]: > 16.7 µM
- GI50 [44]: < 1.67 nM
- TGI [44]: 0.236 µM
- GI50 [45]: 67.5 nM
- TGI [45]: > 15.7 µM
- GI50 [57]: 3.68 nM
- TGI [57]: 143 nM
- GI50 [58]: < 1.67 nM
- TGI [58]: > 16.7 µM
- GI50 [46]: < 1.67 nM
- TGI [46]: 0.253 µM
- GI50 [47]: > 16.7 µM
- TGI [47]: > 16.7 µM
- GI50 [48]: < 27 nM
- TGI [48]: > 16.7 µM
- GI50 [49]: 1.96 nM
- TGI [49]: > 16.7 µM
- GI50 [50]: 12.8 nM
- TGI [50]: > 16.7 µM
- GI50 [51]: < 1.67 nM
- TGI [51]: > 16.7 µM
- GI50 [52]: 3.87 nM
- TGI [52]: > 16.7 µM
